# Test results as given in patent US20130011845A1, “MICRORNA REGULATING THE INSULIN SIGNALING PATHWAY, AND METHOD FOR SCREENING MATERIAL FOR CONTROLLING THE ACTION OF A TARGET THEREOF” (SNU R & DB Foundation, priority 2009, published 2013).
# Experiments:
# FOG2 3′UTR = assay: dual-luciferase 3′UTR reporter assay, pAC-FOG2; format: cell-based; settings: luciferase reporter with FOG2 3′UTR, human Hela cell lines; average of at least two independent experiments
# Protocol: (§1) In order to determine whether the target genes identified in Example 7 are in actuality targets of miR-8 and miR-200 family miRNAs, the inventors performed cloning. In other words, […] containing the miRNA target sites. Specifically, in order to obtain cDNAs of respective target genes, from drosophila S2 cell lines or human Hela cell lines, total RNA was extracted by using RNeasy mini kit (QIAGEN, US). 1 μg of total RNA and 1 μl of Oligo-dT (Invitrogen, US) were charged with up to 50 μl of distilled water, and placed into SuperScript First-Strand Synthesis System (Invitrogen, US), followed by RT-PCR reaction. Through the reaction at 65° C. for 6 min, at 4° C. for 5 min, at 42° C. for 60 min, at 95° C. for 5 min, and at 4° C. for 5 min, cDNA was synthesized. By using the cDNA (3˜5 μg) as template, and using a primer pair on respective genes noted in Table 3 and PCR Mastermix (Promega, US), PCR was performed on 3′UTR of ush, Lap1, CG8445, dbo, Lar, Ced-12, CG12333, cbt, FOG2, SEPT7, RIN2, SHC1, HOXB5, LF11, TCF7L1, ERBB21P, ELMO2, BAP1, WDR37, KLHL20, PTPRD, RASSF2 and VAC14 from among the target genes selected in Example 7. Herein, PCRP on atro as a drosophila control gene was also performed. After the reaction was completed, the PCR product on each gene's 3′UTR region was cleaved by each of the following restriction enzymes:
# (§2) Then, it was cloned into pAC5.1 luciferase vector (a kind gift of Elisa Izaurralde) cleaved by the same restriction enzymes so as to produce a reporter plasmid having a miR-8 or miR-200 family target sequence in luciferase gene's 3′UTR sequence.
# (§3) Reporter plasmids and renilla luciferase expression vectors (Promega, US), as noted in Table 4, and miRNAs of miR-200 family of miR-141, miR-200a (hsa-miR-200a, SEQ ID: 87: 5′-[…]-3′), miR-200b, miR-200c (has-miR-200c, SEQ ID: 88: 5′-[…]-3′) and miR-429, and miR-8 (dme-miR-8, SEQ ID: 89: 5′-[…]-3′) were bought from Samchonri and cotransfected into drosophila S2 cell lines or human Hela cell lines. Then, the activities of luciferase were measured through dual-luciferase assay (Promega, US) by a luminometer (Biorad). Then, 7 gene pairs that respond both to miR-8 and to mir-200 family miRNAs in Drosophila and human cells, respectively were identified (see FIG. 15).
# ERBB2IP 3′UTR = assay: dual-luciferase 3′UTR reporter assay, pAC-ERBB2IP; format: cell-based; settings: luciferase reporter with ERBB2IP 3′UTR, human Hela cell lines; average of at least two independent experiments
# Protocol: as §1, §2, §3
# BAP1 3′UTR = assay: dual-luciferase 3′UTR reporter assay, pAC-BAP1; format: cell-based; settings: luciferase reporter with BAP1 3′UTR, human Hela cell lines; average of at least two independent experiments
# Protocol: as §1, §2, §3
# ELMO2 3′UTR = assay: dual-luciferase 3′UTR reporter assay, pAC-ELMO2; format: cell-based; settings: luciferase reporter with ELMO2 3′UTR, human Hela cell lines; average of at least two independent experiments
# Protocol: as §1, §2, §3
# KLF11 3′UTR = assay: dual-luciferase 3′UTR reporter assay, pAC-KLF11; format: cell-based; settings: luciferase reporter with KLF11 3′UTR, human Hela cell lines; average of at least two independent experiments
# Protocol: as §1, §2, §3
# RIN2 3′UTR = assay: dual-luciferase 3′UTR reporter assay, pAC-RIN2; format: cell-based; settings: luciferase reporter with RIN2 3′UTR, human Hela cell lines; average of at least two independent experiments
# Protocol: as §1, §2, §3
# RASSF2 3′UTR = assay: dual-luciferase 3′UTR reporter assay, pAC-RASSF2; format: cell-based; settings: luciferase reporter with RASSF2 3′UTR, human Hela cell lines; average of at least two independent experiments
# Protocol: as §1, §2, §3
# Hep3B cells = assay: MTT cellular viability assay; format: cell-based, human; settings: Hep3B cells transfected with 30 nM
# Protocol: Because stimulation of PI3K and Akt is known to facilitate cell proliferation and antagonize apoptosis (Pollak, 2008), the inventors measured cellular viability with the MTT (3-(4,5-dimethylthiazol-2-yl)-2,5-diphenyltetrazolium bromide) assay in Hep3B cells. Specifically, Hep3B cells were plated in a 96-well plate, and transfected with 30 nM of synthesized siGFP, miR-141, miR-200a, miR-200b, miR-200c, miR-429 or siFOG2. Then, to the plate, 50 μl of MTT solution (2 mg/ml) (Promega, US) was added per each well, followed by culturing at 37 °C for 1 hour. Then, each well was added with 150 μl of DMSO, and measured by a microplate reader (Bio-rad, US) at a wavelength of 590 nm. Also, Hep3B cells were transfected with 200 nM of luciferase, or 200 nM of oligonucleotides having complementary sequences to miR-141, miR-200a, miR-200b, miR-200c or miR-429, and then were subjected to MTT assay in the same manner as described above.
Substance,"Represion fold, FOG2 (FOG2 3′UTR)","Represion fold, ERBB2IP (ERBB2IP 3′UTR)","Represion fold, BAP1 (BAP1 3′UTR)","Represion fold, ELMO2 (ELMO2 3′UTR)","Represion fold, KLF11 (KLF11 3′UTR)","Represion fold, RIN2 (RIN2 3′UTR)","Represion fold, RASSF2 (RASSF2 3′UTR)",cell viability (MTT) (Hep3B cells)
"5′-UAAUACUGUCUGGUAAAACCGU-3′ (listed as RNA, chemistry not given here) [miR-429]",0.47 fold,0.54 fold,0.67 fold,0.89 fold,1.07 fold,1.41 fold,1.01 fold,increased cell viability
"5′-UAAUACUGCCUGGUAAUGAUGA-3′ (listed as RNA, chemistry not given here) [miR-200b]",0.37 fold,0.57 fold,0.79 fold,1.04 fold,1.02 fold,1.91 fold,1.28 fold,increased cell viability
"5′-UAACACUGUCUGGUAAAGAUGG-3′ (listed as RNA, chemistry not given here) [miR-141]",0.59 fold,0.7 fold,0.84 fold,0.73 fold,1.03 fold,1.10 fold,0.90 fold,increased cell viability
"5′-UAACACUGUCUGGUAACGAUGU-3′ (listed as RNA, chemistry not given here) [miR-200a]",0.64 fold,1.18 fold,1.04 fold,1.22 fold,1.20 fold,2.49 fold,1.36 fold,increased cell viability
